Measurements from PubChem BioAssay (NCI).
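Where inhibition never reached the appropriate level, the endpoint shown equals the highest concentration tested. Otherwise, values were interpolated linearly from a five-concentration, 48-hour dose response in 96-well plates. GI50 marks 50% less growth. The concentration for full growth arrest is given as TGI.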

Assays:
Test in all cases: inhibition of tumour cell growth, NCI panel, 48 h
SR leukemia = tested on: SR leukemia
HOP-92 NSCLC = tested on: HOP-92 NSCLC
SK-MEL-5 melanoma = tested on: SK-MEL-5 melanoma
SN12C renal = tested on: SN12C renal
MDA-MB-435 = tested on: MDA-MB-435
MALME-3M melanoma = tested on: MALME-3M melanoma
HCT-116 colon = tested on: HCT-116 colon
HS 578T breast = tested on: HS 578T breast
RXF 393 renal = tested on: RXF 393 renal
IGROV1 ovarian = tested on: IGROV1 ovarian
OVCAR-3 ovarian = tested on: OVCAR-3 ovarian
PC-3 prostate = tested on: PC-3 prostate
ACHN renal = tested on: ACHN renal
SNB-19 CNS = tested on: SNB-19 CNS
A549 NSCLC = tested on: A549 NSCLC
TK-10 renal = tested on: TK-10 renal
MOLT-4 leukemia = tested on: MOLT-4 leukemia
UACC-62 melanoma = tested on: UACC-62 melanoma
HT29 colon = tested on: HT29 colon
HL-60(TB) leukemia = tested on: HL-60(TB) leukemia
SF-539 CNS = tested on: SF-539 CNS
SW-620 colon = tested on: SW-620 colon
CCRF-CEM leukemia = tested on: CCRF-CEM leukemia
M14 melanoma = tested on: M14 melanoma
NCI-H460 lung = tested on: NCI-H460 lung
RPMI-8226 leukemia = tested on: RPMI-8226 leukemia
HOP-62 NSCLC = tested on: HOP-62 NSCLC
MCF7 breast = tested on: MCF7 breast
BT-549 breast = tested on: BT-549 breast
OVCAR-5 ovarian = tested on: OVCAR-5 ovarian
K-562 leukemia = tested on: K-562 leukemia
OVCAR-8 ovarian = tested on: OVCAR-8 ovarian
HCC-2998 colon = tested on: HCC-2998 colon
OVCAR-4 ovarian = tested on: OVCAR-4 ovarian
UACC-257 melanoma = tested on: UACC-257 melanoma
T-47D breast = tested on: T-47D breast
CAKI-1 renal = tested on: CAKI-1 renal
U251 CNS = tested on: U251 CNS
SK-MEL-28 melanoma = tested on: SK-MEL-28 melanoma
A498 renal = tested on: A498 renal
DU-145 prostate = tested on: DU-145 prostate
NCI-H522 lung = tested on: NCI-H522 lung
SK-OV-3 ovarian = tested on: SK-OV-3 ovarian
HCT-15 colon = tested on: HCT-15 colon
SK-MEL-2 melanoma = tested on: SK-MEL-2 melanoma
NCI/ADR-RES ovarian = tested on: NCI/ADR-RES ovarian
LOX IMVI melanoma = tested on: LOX IMVI melanoma
NCI-H23 lung = tested on: NCI-H23 lung
MDA-MB-231 breast = tested on: MDA-MB-231 breast
MDA-MB-468 breast = tested on: MDA-MB-468 breast
786-0 renal = tested on: 786-0 renal
KM12 colon = tested on: KM12 colon
COLO 205 colon = tested on: COLO 205 colon
SF-295 CNS = tested on: SF-295 CNS
EKVX NSCLC = tested on: EKVX NSCLC
SF-268 CNS = tested on: SF-268 CNS
UO-31 renal = tested on: UO-31 renal
NCI-H226 lung = tested on: NCI-H226 lung

## O=C(NNc1nc2cc(F)ccc2n2c(CN3CCCCC3)ccc12)c1cnccn1
SR leukemia
  GI50: 0.288 µM
  TGI: 2.21 µM
HOP-92 NSCLC
  GI50: 1.19 µM
  TGI: 5.37 µM
SK-MEL-5 melanoma
  GI50: 1.81 µM
  TGI: 8.1 µM
SN12C renal
  GI50: 1.29 µM
  TGI: 8.5 µM
MDA-MB-435
  GI50: 2.74 µM
  TGI: 13.9 µM
MALME-3M melanoma
  GI50: 2.31 µM
  TGI: 8.94 µM
HCT-116 colon
  GI50: 0.701 µM
  TGI: 12.5 µM
HS 578T breast
  GI50: 2.62 µM
  TGI: 18 µM
RXF 393 renal
  GI50: 1.69 µM
  TGI: 5.62 µM
IGROV1 ovarian
  GI50: 0.894 µM
  TGI: 5.06 µM
OVCAR-3 ovarian
  GI50: 2.04 µM
  TGI: 16 µM
PC-3 prostate
  GI50: 1.22 µM
  TGI: 6.72 µM
ACHN renal
  GI50: 0.763 µM
  TGI: 7.91 µM
SNB-19 CNS
  GI50: 1.54 µM
  TGI: 12 µM
A549 NSCLC
  GI50: 1.22 µM
  TGI: 11.8 µM
TK-10 renal
  GI50: 0.969 µM
  TGI: 10.2 µM
MOLT-4 leukemia
  GI50: 0.388 µM
  TGI: 2.32 µM
UACC-62 melanoma
  GI50: 1.28 µM
  TGI: 3.24 µM
HT29 colon
  GI50: 0.474 µM
  TGI: 13.3 µM
HL-60(TB) leukemia
  GI50: 0.34 µM
  TGI: 1.64 µM
SF-539 CNS
  GI50: 1.14 µM
  TGI: 6.94 µM
SW-620 colon
  GI50: 1.07 µM
  TGI: 10.7 µM
CCRF-CEM leukemia
  GI50: 0.462 µM
  TGI: 3.17 µM
M14 melanoma
  GI50: 1.49 µM
  TGI: 5.54 µM
NCI-H460 lung
  GI50: 0.392 µM
  TGI: 3.15 µM
RPMI-8226 leukemia
  GI50: 0.953 µM
  TGI: 12.1 µM
HOP-62 NSCLC
  GI50: 1.14 µM
  TGI: 7.91 µM
MCF7 breast
  GI50: 1.58 µM
  TGI: 10.3 µM
BT-549 breast
  GI50: 1.57 µM
  TGI: 12.7 µM
OVCAR-5 ovarian
  GI50: 1.35 µM
  TGI: 7.23 µM
K-562 leukemia
  GI50: 1.22 µM
  TGI: 4.58 µM
OVCAR-8 ovarian
  GI50: 0.944 µM
  TGI: 5.27 µM
HCC-2998 colon
  GI50: 1.14 µM
  TGI: 11.6 µM
OVCAR-4 ovarian
  GI50: 0.842 µM
  TGI: 4.55 µM
UACC-257 melanoma
  GI50: 2.73 µM
  TGI: 9.77 µM
T-47D breast
  GI50: 2.07 µM
  TGI: 10.2 µM
CAKI-1 renal
  GI50: 0.918 µM
  TGI: 11 µM
U251 CNS
  GI50: 0.967 µM
  TGI: 11.7 µM
SK-MEL-28 melanoma
  GI50: 2.7 µM
  TGI: 13.3 µM
A498 renal
  GI50: 13.9 µM
  TGI: 26.9 µM
DU-145 prostate
  GI50: 1.41 µM
  TGI: 11.8 µM
NCI-H522 lung
  GI50: 1.36 µM
  TGI: 5.1 µM
SK-OV-3 ovarian
  GI50: 1.17 µM
  TGI: 10.9 µM
HCT-15 colon
  GI50: 0.19 µM
  TGI: 12.8 µM
SK-MEL-2 melanoma
  GI50: 2.13 µM
  TGI: 12.4 µM
NCI/ADR-RES ovarian
  GI50: 0.514 µM
  TGI: 2.29 µM
LOX IMVI melanoma
  GI50: 0.682 µM
  TGI: 2.88 µM
NCI-H23 lung
  GI50: 1.39 µM
  TGI: 3.43 µM
MDA-MB-231 breast
  GI50: 1.26 µM
  TGI: 10.4 µM
MDA-MB-468 breast
  GI50: 1.2 µM
  TGI: 3.1 µM
786-0 renal
  GI50: 1.32 µM
  TGI: 4.36 µM
KM12 colon
  GI50: 1.17 µM
  TGI: 12.4 µM
COLO 205 colon
  GI50: 1.16 µM
  TGI: 9.74 µM
SF-295 CNS
  GI50: 0.599 µM
  TGI: 6.27 µM
EKVX NSCLC
  GI50: 0.525 µM
  TGI: 3.76 µM
SF-268 CNS
  GI50: 1.33 µM
  TGI: 11.8 µM
UO-31 renal
  GI50: 0.33 µM
  TGI: 4.91 µM
NCI-H226 lung
  GI50: 1.64 µM
  TGI: 6.8 µM
